Patent US8227610B2, “Compositions and methods for producing cellular labels for nuclear magnetic resonance techniques” (Carnegie Mellon University, priority 2007, dated 2012)

Assays:
[1] = Critical micelle concentration estimated from light scattering intensity and particle size; assay type: physicochemical; set-up: critical micell concentration (CMC): unit not given here
Description: FIG. 1. PFPE amide 1 emulsified with Pluronic™ F68 by sonication in 1×HBSS buffer. Emulsion was diluted in 1×HBSS and particle size measured by Dynamic Light Scattering (DLS). Data represents average of two independent measurements, (mean±SD). Critical micelle concentration (CMC) of PFPE amide 1 is 22.2 mg/mL, in presence of 21.6 mol % F68 and 1×HBSS buffer, was estimated from the intersection of the graph of two curves. Measurements performed on Zetasizer Nano (Malvern, UK).
Pluronic™ F68 was dissolved in aqueous buffer (HBSS, Hyclone) at 150 mg/mL. PFPE amide 1 was added at 152 mg/mL, and the mixture (250 μL) was placed in an 1.5 mL Eppendorf vial and sonicated (at 20 W and 20 kHz) at room temperature for 30 seconds. The emulsion was then diluted 1:3 in 1×HBSS and the particle size was measured by dynamic light scattering in Malvern Zetasizer Nano within 1 h. The molar ratio of PFPE amide 1 to F68 was 4.6:1. The polydispersity (PDI) was 0.12 to 0.19 and the average particle size 200 nm. The critical micellar concentrations (CMC) for the PFPE amide 1 and F68 was estimated by plotting the light scattering intensity and average diameter and looking for the curve intersection, as shown in FIG. 1.

dendritic cells [2] = test: PFPE uptake in dendritic cells measured by 19F NMR; assay type: cell-based, mouse; conditions: 3 h incubation
Description: (§1) Labeling mouse dendritic cells was performed according to published methods with minor modifications^35. Dendritic cells were plated in 6-well plates, 1−2×10^6/well, and allowed to attach overnight. A PFPE diethyl amide 1/L35 emulsion was mixed with 0.3 mL of serum free media, incubated for 30 min at room temperature, and then added to the cells. After a 3 h incubation at 37° C., the cell labeling medium was removed and cells were washed three times with 1×PBS, detached by trypsinization, washed, and resuspended in 0.5 mL of complete media containing 10% FBS. A portion of the cell suspension (1/10) was used for cell number estimates by Cell Titer Glo. The cells were pelleted\ and resuspended in 0.1 mL of media for ^19F NMR measurements to assess the cell loading.
When dendritic cells were used, the cell suspension (0.1 mL) was mixed with 100 ul of 1% TFA solution in glycerol as a calibrated ^19F reference. The two solutions were mixed well and transferred into a 5 mm NMR tube. Cell uptake was calculated from the relative areas under the peak at −91.5 ppm (PFPE main peak) and the TFA internal standard peak at −76 ppm. Cellular uptake (i.e., the parameter Fc) was calculated as the mean number of fluorine atoms per single viable cell.

dendritic cells [3] = test: Cell number and viability of labeled dendritic cells by Cell Titer Glo; assay type: cell-based, mouse; conditions: after labeling
Description: In the examples given below, cellular number was estimated using the commercial assay Cell Titer Glo (Promega). The assay implementation is easy and highly reproducible. A correlation curve was constructed for each labeling experiment at the day of experiment using the same cell culture. When testing the viability post-labeling, a small sample (50 μL) was taken from labeled cell suspension and mixed with Cell Titer Glo reagent in triplicate. Luminescence was measured within 10 minutes and the viable cell number was estimated from a linear correlation curve prepared on the day of experiment.
as §1

Substance	critical micelle concentration (CMC) ([1]; 1×HBSS) [mg/mL]	critical micell concentration (CMC) ([1]; PFPE-tyramide 6/F68 24:1, thin film method, water)	uptake in DCs by 19F NMR (in words) (dendritic cells [2])	cell viability / toxicity in DCs (in words) (dendritic cells [3])
Perfluoropolyether diethyl amide [PFPE amide 1]	22.2	–	–	–
Perfluoropolyether tyramide [PFPE tyramide 6]	–	4.5	comparable to the cell labeling experiments that were facilitated with protamine sulfate	non-toxic over various doses
